Test results reported in patent US6166076A, “Taste enhancing food additives” (Board of Supervisors of Louisiana State University and …, priority 1997, dated 2000).

How the values were obtained:
[1] = tested on: inactivating A-type K^+ channels (IA); test: whole-cell patch clamp, inactivating A-type K^+ current (IA) in rat fungiform taste receptor cells; format: cell-based, rat (Sprague-Dawley); conditions: 4-AP 10 mM; in presence of arachidonic acid; n=10 cells
Procedure: (§1) Voltage-activated currents were recorded from individual taste receptor cells maintained in the taste bud using the whole-cell patch clamp configuration, as generally described in Hamill et al., "Improved Patch-clamp Techniques for High-resolution Current Recording from Cells and Cell-free Membrane Patches," Pflugers Arch., Vol. 391, pp. 85-100 (1981). […]
(§2) Typical seal resistances on TRC membranes ranged from […] to greater than 50 G.OMEGA.. […] Commands were delivered and data recorded using pCLAMP software (version 6.0.3) interfaced to an AxoPatch 200A amplifier with a Digidata 1200A A-D board (Axon Instruments, Foster City, Calif.). […]
(§3) For analysis, currents during FFA application were averaged over a consistent time range corresponding to the steady-state condition, and were compared to currents in control (Tyrode's) solution. […] For analysis of delayed rectifying K^+ channels, currents were measured at command potentials of +40 mV during steady-state; inwardly rectifying currents, when investigated, were measured at -130 mV. Significant effects of FFAs on K^+ currents were determined by paired Student's t tests (α=0.05) compared to control currents immediately preceding the test stimulus. […]

[2] = tested on: delayed rectifier K^+ channel; test: whole-cell patch clamp, delayed rectifier K^+ channel (steady-state outward K^+ current at +40 mV) in rat fungiform taste receptor cells; format: cell-based, rat (Sprague-Dawley)
Excerpt: (§4) The effects of free fatty acids ("FFAs") on taste buds isolated from rat fungiform papillae were examined to determine if a chemosensory (i.e. non-textural) cue for fats is located in the mouth. The methods used to isolate TRCs were generally as described in Behe et al., "Membrane Currents in Taste Cells of the Rat Fungiform Papilla: Evidence for Two Types of Ca Currents and Inhibition of K Currents by Saccharin," Journal of General Physiology, Vol. 96, pp. 1061-1084 (1990); Doolin et al., "Distribution and Characterization of Functional Amiloride-sensitive Sodium Channels in Rat Tongue," Journal of General Physiology, Vol. 107. pp. 545-554 (1996); and Gilbertson et al., "Proton Currents Through Amiloride-sensitive Na^+ Channels in Isolated Hamster Taste Cells: Enhancement by Vasopressin and cAMP," Neuron, Vol. 10, pp. 931-942 (1993).
(§5) Individual fungiform taste buds were isolated from the tongues of 2- to 5-month-old male Sprague-Dawley rats (Harlan Sprague Dawley, Indianapolis,Ind.). Animals were housed individually in polycarbonate cages with food (Purina #5001, Purina Mills, St. Louis, Mo.) provided ad lib. The room containing the rats was maintained at 21-23° C. on a 0700-1900 h light-dark cycle. All animal care and experimental procedures were in accordance with National Institutes of Health guidelines, and were approved by the Institutional Animal Care and Use Committee of the Pennington Biomedical Research Center.
(§6) Tongues were removed from euthanized rats, and were immediately placed in ice-cold Tyrode's solution. To remove the lingual epithelium containing the taste buds from the underlying muscle layer, approximately 1.0 ml of Tyrode's solution containing 0.3 mg/ml collagenase A (Boehringer Mannheim Corp., Indianapolis, Ind.), 2.5 mg/ml dispase (grade II; Boehringer Mannheim) and 1.0 mg/ml trypsin inhibitor (type I-S; Sigma Chemical Co., St. Louis, Mo.) was injected below the epithelium. The injected tongue was placed in Ca--Mg free Tyrode's solution and bubbled with O2 for 33-35 min. The lingual epithelium was removed and pinned serosal side up, allowing access to the taste buds. Fungiform taste buds were removed individually by gentle suction with a large, firepolished pipette (~200 μm diameter), and were plated onto Cell-Tak™-coated microscope slides (Collaborative Biomedical Prod., Bedford, Mass.) fitted with an O-ring which served as a recording chamber. Once plated, cells were perfused continually with Tyrode's or various test solutions. Taste buds isolated in this manner were used for up to 6 hours without any noticeable morphological or physiological decrement.
(§7) All chemicals were obtained from Sigma Chemical Corporation (St. Louis, Mo.) unless otherwise indicated. Normal extracellular solution (Tyrode's) contained (in mM): NaCl, 140; KCl, 5; CaCl2, 1; MgCl2, 1; HEPES (N-[2-hydroxyethyl] piperazine-N'-[2-ethanesulfonic acid), 10; glucose, 10; and sodium pyruvate, 10. The pH was adjusted to 7.40 with NaOH. In Ca^2+ --Mg^2+ free Tyrode's solution, 2 mM BAPTA (1,2-bis(2-aminophenoxy) ethane-N,N,N',N'-tetraacetic acid) (Molecular Probes, Eugene, Oreg.) replaced CaCl2 and MgCl2. Other components were identical to Tyrode's solution. Intracellular (pipette) solution contained (in mM): KCl, 140; CaCl2, 1 [free Ca^2+ was ~10^-8 M]; MgCl2, 2; HEPES, 10; EGTA (ethylene glycol-bis(β-aminoethylether)-N,N,N',N'-tetraacetic acid), 11; and ATP, 3. The pH was adjusted to 7.20 with KOH.
(§8) Free fatty acids (FFAs) were stored below -20° C. until the day of use, when they were dissolved in warm ethanol and diluted to final working concentrations in Tyrode's solution. Final ethanol concentrations in Tyrode's were below 0.1%; the ethanol had no effect on ionic currents in any TRCs. All FFAs were applied by bath perfusion. In some experiments, FFA-containing solutions were bubbled continuously with nitrogen to retard oxygenation. […]

[3] = tested on: delayed rectifying K^+ channels; test: patch clamp, delayed rectifying K^+ channels of TRCs isolated from Osborne-Mendel rats; format: cell-based
Excerpt: (§9) To determine if there is a link between the sensitivity of TRCs to PUFAs and dietary fat preferences, the PUFA-sensitivities of TRCs using patch clamp techniques were compared on TRCs isolated from Osborne-Mendel ("O-M") rats and S5B/P1 rats, strains with different dietary preferences. O-M rats prefer fat over carbohydrate, while S5B/P1 rats prefer carbohydrate over fat. […] Rats whose TRCs were more sensitive to the fatty acids have a preference for a lower-fat diet; while rats whose TRCs are less sensitive to fatty acids seek diets that are higher in fat.

[4] = tested on: delayed rectifying K^+ channels; test: patch clamp, delayed rectifying K^+ channels of TRCs isolated from S5B/P1 rats; format: cell-based
Excerpt: as §9

cardiac atrial cells = conditions: applied extracellularly; cited from earlier work
[5] = tested on: inwardly rectifying K^+ channels (Kir); test: whole-cell patch clamp, inwardly rectifying K^+ channels (Kir) at -130 mV in rat fungiform taste receptor cells; format: cell-based, rat (Sprague-Dawley)
Excerpt: as §4, §5, §6, §7, §8

[6] = tested on: ATP-inhibitable K channel (KATP); test: whole-cell patch clamp, ATP-inhibitable K channel (KATP) residual current in rat fungiform taste receptor cells; format: cell-based, rat (Sprague-Dawley); conditions: glyburide 20 μM; in presence of arachidonic acid and 4-AP; n=6 cells
Procedure: as §1, §2, §3

Nc1ccncc1 [4-aminopyridine]
inhibition of the rapidly inactivating current (IA) [1]: reversibly and completely inhibited

CCCCC/C=C\C/C=C\C/C=C\C/C=C\CCCC(=O)O [arachidonic acid]
effect on outward K^+ currents, specificity test ([2]; 10 μM, >10 min (maximal effect), significance by paired t test): significantly reduced outward K^+ currents
inhibition of the voltage-activated steady-state outward K^+ current ([2]; 10 μM, +40 mV, n=44 cells): 83%
mean time constant (ton) for the onset of effects ([2]; 10 μM, n=18 cells): 4.37 ± 1.8 min
inhibition of delayed rectifier K^+ channel in presence of NDGA and indomethacin ([2]; NDGA 10 μM and indomethacin 200 μM, n=5 cells): inhibited the delayed rectifier K^+ channel
effect on outward K^+ currents / delayed rectifier K^+ channel (in words) ([2]; arachidonic acid 0.25-100 μM, extracellular, all cells examined): reversible, slowly developing inhibition of the delayed rectifier K^+ channel
time to reach maximum effect on outward K^+ currents ([2]; extracellular arachidonic acid): 10 to 15 min
recovery time constant (toff) from inhibition ([2]; n=18 cells): 10.92 ± 5.9 min
time constant for inactivation of the outward K^+ current ([2]; presence of 10 μM arachidonic acid, control 457±103 msec, n=20): 42 ± 26 ms
Ki ([2]; read-out: inhibition constant (Ki) for the delayed rectifier K^+ channel): 1020 nM
stimulation of taste receptor cells ([2]; summary statement): stimulate taste receptor cells
inhibition of the delayed rectifying K^+ channels, O-M rats [3]: inhibited the delayed rectifying K^+ channels in a concentration-dependent manner
sensitivity of S5B/P1 TRCs to inhibition compared with O-M TRCs ([4]; 10 μM, versus TRCs from O-M rats): significantly more sensitive to inhibition
inhibition of the delayed rectifying K^+ channels, S5B/P1 rats ([4]; TRCs from S5B/P1 rats): inhibited the delayed rectifying K^+ channels in a concentration-dependent manner
response of cardiac cells (cardiac atrial cells): responded
change of Kir over control levels, in words ([5]; 10 μM arachidonic acid, approximately 30% of cells): approximately doubling Kir over control levels
Kir compared to control ([5]; 10 μM, -130 mV, n=16 cells, % of control): 191%±19.7
share of cells in which Kir was activated ([5]; 10 μM, subset of cells, of the total): approximately 30%
activation of Kir in cells that did not show this current in control ([5]; cells without Kir in control (saline) conditions): not able to activate Kir
effect on inward currents in cells without inward rectification ([5]; potentials more negative than -100 mV, n=37 cells): not significantly affected

COc1ccc(Cl)cc1C(=O)NCCc1ccc(S(=O)(=O)NC(=O)NC2CCCCC2)cc1 [glyburide]
block of the residual (KATP) current [6]: blocked the residual current
